Results on 1 compound are retold here after US12152030B2 (NOVOSTAR PHARMACEUTICALS, LTD., priority 2019, dated 2024).

One series concerns the target MNK1 (Homo sapiens, UniProt Q9BUB5). In words: KinomeScan, MNK1. Format: binding. An excerpt: (§1) KinomeScan was used to determine the kinase selectivity of compound 2.
The next series has as its target T1, GAK (Homo sapiens, UniProt O14976).
T1 sequence (O14976 1-1311): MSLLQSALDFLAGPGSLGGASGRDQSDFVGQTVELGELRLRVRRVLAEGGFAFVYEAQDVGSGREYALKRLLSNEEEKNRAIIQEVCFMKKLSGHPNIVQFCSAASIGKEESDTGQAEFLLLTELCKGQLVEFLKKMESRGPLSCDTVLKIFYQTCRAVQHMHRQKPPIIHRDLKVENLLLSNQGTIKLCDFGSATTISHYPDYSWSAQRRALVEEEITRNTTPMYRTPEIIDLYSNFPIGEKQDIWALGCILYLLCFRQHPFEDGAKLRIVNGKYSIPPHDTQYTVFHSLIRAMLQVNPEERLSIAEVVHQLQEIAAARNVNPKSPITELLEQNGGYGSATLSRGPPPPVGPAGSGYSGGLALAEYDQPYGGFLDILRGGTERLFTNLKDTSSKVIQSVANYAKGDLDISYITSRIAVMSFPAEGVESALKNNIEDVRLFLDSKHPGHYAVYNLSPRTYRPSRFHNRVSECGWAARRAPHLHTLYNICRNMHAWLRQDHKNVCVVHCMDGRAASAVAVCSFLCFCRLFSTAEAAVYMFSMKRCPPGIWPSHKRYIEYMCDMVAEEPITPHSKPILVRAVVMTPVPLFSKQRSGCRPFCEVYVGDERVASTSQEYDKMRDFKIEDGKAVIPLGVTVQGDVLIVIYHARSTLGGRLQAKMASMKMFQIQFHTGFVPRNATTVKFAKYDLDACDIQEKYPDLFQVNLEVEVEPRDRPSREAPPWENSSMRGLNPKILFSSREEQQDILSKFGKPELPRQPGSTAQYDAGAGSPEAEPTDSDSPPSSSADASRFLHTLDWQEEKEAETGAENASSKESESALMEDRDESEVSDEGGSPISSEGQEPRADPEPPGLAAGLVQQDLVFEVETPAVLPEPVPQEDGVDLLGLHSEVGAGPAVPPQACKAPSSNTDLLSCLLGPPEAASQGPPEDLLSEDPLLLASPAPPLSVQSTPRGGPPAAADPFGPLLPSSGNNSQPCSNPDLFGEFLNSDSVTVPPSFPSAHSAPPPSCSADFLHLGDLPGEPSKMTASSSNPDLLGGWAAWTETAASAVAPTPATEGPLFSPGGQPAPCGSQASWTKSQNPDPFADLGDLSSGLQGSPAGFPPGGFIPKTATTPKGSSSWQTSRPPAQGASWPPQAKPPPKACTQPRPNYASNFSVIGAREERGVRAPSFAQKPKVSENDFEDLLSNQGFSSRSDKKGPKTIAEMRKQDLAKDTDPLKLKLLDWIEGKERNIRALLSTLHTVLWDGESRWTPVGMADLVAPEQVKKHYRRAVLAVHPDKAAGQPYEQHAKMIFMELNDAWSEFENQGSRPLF
In words: KinomeScan, GAK. Format: binding.
Excerpt: as §1

The target in the next series is T2, STK17A/DRAK1 (Homo sapiens, UniProt Q9UEE5).
T2 sequence (Q9UEE5 1-414): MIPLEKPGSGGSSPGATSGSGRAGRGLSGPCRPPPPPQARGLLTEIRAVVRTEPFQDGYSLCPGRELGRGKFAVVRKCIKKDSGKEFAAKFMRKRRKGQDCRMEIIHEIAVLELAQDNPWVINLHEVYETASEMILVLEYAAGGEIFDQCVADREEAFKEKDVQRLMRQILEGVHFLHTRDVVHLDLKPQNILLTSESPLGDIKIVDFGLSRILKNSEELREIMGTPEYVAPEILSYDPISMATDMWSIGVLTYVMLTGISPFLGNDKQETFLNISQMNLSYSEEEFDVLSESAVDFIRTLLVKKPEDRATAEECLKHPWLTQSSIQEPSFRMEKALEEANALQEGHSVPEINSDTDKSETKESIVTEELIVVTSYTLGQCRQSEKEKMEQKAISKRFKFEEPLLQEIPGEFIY
Briefly: KinomeScan, DRAK1. The format is binding.
Excerpt: as §1

Series [1] can be described thus: Pharmacokinetic study in rats. Format: in vivo. The settings on record: male, SD, plasma, rat. The procedure:
In the examples, rat pharmacokinetic tests were performed for compounds 2 and 26 to illustrate their pharmacokinetic properties in rats.
Formulation of Liquors of Compound 2: […]
Experimental Method for Pharmacokinetic Study in Rats
(§2) Six SD rats, male, weighing 180-220 g, fasting for 12 hours, were randomly divided into 2 groups, 3 in each group. The animals in group A were intragastrically administrated with the compound liquor at a dose of 10 mg/kg; the animals in group B were intravenously administrated with the compound liquor via tails at a dose of 3 mg/kg. Blank blood was harvested before administration; about 100 μL of venous blood was harvested at different time points after administration, placed in a test tube added with heparin and centrifuged, and about 50 μL of blood plasma was collected and stored at −20° C. for testing.
Formulation of Liquors of Compound 26: […]
Formulation of solution for intravenous administration: compound 26 was dissolved in a solution of 5% DMSO+10% Solutol HS15+85% (20% HP-(3-CD physiological saline).
Formulation of suspension for intragastric administration: compound 26 was dissolved in a solution of 5% DMSO+10% Solutol HS15+85% (20% HP-(3-CD physiological saline).
Administration dosage of compound 26: 1 mg/kg for intravenous injection, 3 mg/kg for intragastric administration.
as §2, with “of 3” for “of 10”, “of 1” for “of 3”

The structures appear in SMILES notation. Structures can show the parent of a compound that is named as a salt.

Chain of MNK1 (Q9BUB5 whole entry): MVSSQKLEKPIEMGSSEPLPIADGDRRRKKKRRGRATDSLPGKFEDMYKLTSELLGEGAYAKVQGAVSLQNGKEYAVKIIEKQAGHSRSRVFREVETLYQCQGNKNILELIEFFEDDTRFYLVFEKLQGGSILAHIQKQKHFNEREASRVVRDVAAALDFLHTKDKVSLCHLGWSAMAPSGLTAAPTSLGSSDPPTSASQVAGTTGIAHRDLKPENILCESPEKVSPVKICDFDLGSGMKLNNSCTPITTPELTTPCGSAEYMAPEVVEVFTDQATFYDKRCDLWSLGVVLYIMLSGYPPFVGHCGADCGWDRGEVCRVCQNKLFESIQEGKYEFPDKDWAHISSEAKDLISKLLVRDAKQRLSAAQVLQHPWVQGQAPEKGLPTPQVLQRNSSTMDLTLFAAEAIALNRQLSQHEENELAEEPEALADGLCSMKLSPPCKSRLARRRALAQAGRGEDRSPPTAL

In general, inhibition refers to how much of the control response was suppressed. Low values mean little suppression, high ones strong suppression. For orientation: Kd means the constant that tells how readily two partners part at equilibrium. Usually AUC(0-inf) stands for the area under the concentration-time curve extrapolated to infinity. Higher therefore signals more exposure. One may read the AUC(0-t) as the area under the concentration-time curve up to a stated or last time point. Broadly, the clearance is the volume of plasma or blood freed of the substance per unit of time. As usually defined, the half-life is the time in which the quantity being followed falls by half. What is called bioavailability is dose-corrected exposure relative to a reference, in per cent. Broadly, the Cmax is the highest concentration seen after dosing. As a reminder, the Tmax is the time from dosing to the highest level. Turning to `Cc1c2c(c(=O)n3c1C(=O)NC31CCCCC1)Nc1cc(N)ncc1C2` [Compound 2, 8′-amino-12′-methyl-6′,11′-dihydro-2′H-spiro[cyclohexane-1,3′-imidazole[1′,5′:1,6]pyrido[3,4-B][1,6]naphthyridine]-1′,5′-dione hydrochloride], at MNK1, at 1 µM the inhibition was 97.2%. The inhibition at 1 µM at GAK was 97.8%. Moreover, the Kd at GAK (dose response analysis, read-out: Kd of interaction with GAK) was found to be 50 nM. The compound also showed an inhibition at 1 µM at STK17A/DRAK1 of 62%. At STK17A/DRAK1 (dose response analysis, read-out: Kd of interaction with DRAK1), the Kd is 370 nM. In series [1] (iv, 3 mg/kg), this compound gave an AUC(0-inf) of 471 ng·h/mL, an AUC(0-t) of 456 ng·h/mL, a clearance of 110 mL/min/kg and a half-life of 1.58 h. The Vd in series [1] (iv, i.v., 3 mg/kg, read-out: Vz) came to 12.3 L/kg. Further, in series [1] (oral, p.o. 10 mg/kg vs i.v. 3 mg/kg), the bioavailability came to 38.8%. In addition, in series [1] (po, 10 mg/kg), the AUC(0-inf) stood at 624 ng·h/mL, the AUC(0-t) is 584 ng·h/mL, the peak level (Cmax) was 130 ng/mL and the Tmax was 2.17 h. In series [1] (po, 10 mg/kg), this compound showed a half-life of 5.07 h.
